In one test the test system is NF-κB. Nature of the test: Activation of NF-κB induced by TNF-α in HUVEC (EMSA). The format is cell-based, human. To be noted: 2 and 4 mM, TNF-α 100 U/ml, 90 minutes. The procedure: Human umbilical vein endothelial cells (HUVEC) were obtained by the procedure of Dejana et al. (J. Cell Biol 1987, 104(5), 1403-1411) by treatment of the umbilical vein with. 0.2% collagenase P from C. histolyticum (Boehnnger Manheim GmbH, Manheim, Germany) for 20 minutes at 37° C. Next, cells were cultured in M199 medium (Flow Lab, Herts, U.K.) containing 100 U/ml penicillin, 100 μg/ml streptomycin, 2.5 μg/ml amphotercin B and 20% fetal calf serum. Primary cultures were plated in 25 cm^2 plastic flasks. After 24 hours cells were washed to remove those cells which had not adhered to the flask surface. Then, the same medium containing 10% fetal calf serum, 50 μg/ml endothelial cell growth supplement factor and 100 μg/ml heparn was added. After culturing for 5-7 days, cells reached confluence and were detached from the flask surface with 0.05% trypsin and 0.02% EDTA (Flow Lab). The reaction was inhibited by the addition of fetal calf serum, and then cells were washed and plated again in culture medium. Cells were grown to confluence in gelatin-coated flasks. Cells used for the experiments were from passages 2-7.
In this experiment, HUVEC cells were preincubated with Triflusal and HTB, at concentrations in both cases of 2 and 4 mM. Then these cells were stimulated with 100 U/ml TNF-α (Genzyme Diagnostics, Cambridge, Mass. USA) for 90 minutes. […]

The next test deals with COX-2. Nature of the test: COX-2 expression induced by LPS in human PBMC (immunoblot). The test is classed as cell-based. The following applies: LPS 10 μg/ml, 19 hours, 0.1-5 mM. The procedure:
Mononuclear cells (PBMC) were obtained from blood of healthy donors from the Hospital de Sant Pau, (Barcelona) who had not taken any antiinflammatory drug during a period of not less than 2 weeks before blood extraction. Starting from a volume of about 80 ml of heparinized human blood (10 U/ml), this was diluted (1:1) with PBS (pH 7.4; Dulbecco) without calcium, magnesium nor sodium bicarbonate. 15 ml of Ficoll solution (d=1.077 at 20° C.; Biochrom KG) were placed in 50-ml Falcon tubes. To this solution a volume of about 25 ml per tube of the blood previously diluted with PBS was carefully added and the tubes were then centrifuged at 1,200 g for 20 minutes. Mononudear cells concentrate on a whitish interphase between the plasma and the Ficoll solution. This interphase was collected with a Pasteur pipette and was diluted 1:1 with PBS. It was then centrifuged at 300 g, 10 min. The resulting pellet was resuspended in 50 ml PBS and was again centrifuged at 200 g for 10 min in order to remove platelet contamination. Finally, the resulting pellet was resuspended in 20 ml RPMI-1640 culture medium (GibcoBRL) supplemented with 10% fetal calf serum.
Cells were diluted at a concentration of 2.5 million/ml with RPMI medium containing 10% fetal calf serum and were incubated (37° C., 5% CO2) 19 hours in 6-well plates (2 ml/well, 5 million PBMC). […]
Background: A western blot detects proteins with antibodies after separation by electrophoresis.

As for `O=C(O)c1ccc(C(F)(F)F)cc1O` [HTB, 2-hydroxy-4-trifluoromethylbenzoic acid], the “inhibition of the activation of NF-κB induced by TNF-α” value in the test with NF-κB is recorded as “concentration-dependently inhibit”. Moreover, the “inhibition of COX-2 expression” value with COX-2 is on record as “concentration-dependently inhibit”.

As for `CC(=O)Oc1cc(C(F)(F)F)ccc1C(=O)O` [triflusal, 2-Acetyloxy-4-trifluoromethylbenzoic acid, reference compound], in the test on NF-κB, the “inhibition of the activation of NF-κB induced by TNF-α” value is reported as “concentration-dependently inhibit”. Moreover, the “inhibition of COX-2 expression” value with COX-2 is on record as “concentration-dependently inhibit”.

These data come from patent US6509377B1, “Use of a 2-hydroxy-4-trifluoromethylbenzoic acid derivatives as inhibitors of the activation of the nuclear transcription factor NF-κB” (J. Uriach & Cia, S.A., priority 1999, dated 2003).
